Laboratory results taken from patent publication US9593110B2, “Neprilysin inhibitors” (Theravence Biopharma R&D IP, LLC, priority 2014, dated 2017).

target: human NEP (Homo sapiens (Human), UniProt P08473); experiment: In vitro enzyme inhibition assay at human NEP; details: pKi, recombinant human NEP, fluorogenic peptide substrate, 37° C.
Sequence (P08473 52-750): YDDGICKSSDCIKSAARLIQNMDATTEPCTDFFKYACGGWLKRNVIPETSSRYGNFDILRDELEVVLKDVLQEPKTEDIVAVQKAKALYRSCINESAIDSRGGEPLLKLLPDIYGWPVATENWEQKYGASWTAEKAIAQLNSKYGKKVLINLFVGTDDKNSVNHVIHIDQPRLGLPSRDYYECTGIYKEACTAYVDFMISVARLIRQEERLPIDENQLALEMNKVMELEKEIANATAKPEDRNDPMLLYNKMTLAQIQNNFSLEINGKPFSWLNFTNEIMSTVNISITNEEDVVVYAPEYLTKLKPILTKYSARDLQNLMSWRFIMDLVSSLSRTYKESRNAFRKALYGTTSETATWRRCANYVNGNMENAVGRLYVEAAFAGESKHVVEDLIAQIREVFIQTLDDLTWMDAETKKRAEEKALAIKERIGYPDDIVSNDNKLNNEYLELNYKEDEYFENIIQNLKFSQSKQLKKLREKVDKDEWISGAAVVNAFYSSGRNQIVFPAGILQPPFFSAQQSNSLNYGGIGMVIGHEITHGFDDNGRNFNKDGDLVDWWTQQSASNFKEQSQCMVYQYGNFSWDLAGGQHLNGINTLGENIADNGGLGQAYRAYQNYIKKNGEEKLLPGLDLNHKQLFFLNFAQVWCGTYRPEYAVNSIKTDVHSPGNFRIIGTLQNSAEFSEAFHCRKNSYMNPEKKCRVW

Structure (SMILES) | Ki [nM]
CC(C)c1coc(C(=O)N[C@H](Cc2ccc(-c3cc(Cl)ccc3F)cc2)C[C@@H](CCN)C(=O)O)n1 [Example 24-1, (2R,4S)-2-(2-Aminoethyl)-5-(5′-chloro-2′-fluorobiphenyl-4-yl)-4-[(4-isopropyloxazole-2-carbonyl)amino]pentanoic acid] | 3.16 to 10
NCC[C@H](C[C@@H](Cc1ccc(-c2cc(Cl)ccc2F)cc1)NC(=O)c1cnn[nH]1)C(=O)O [Example 24-2, (2R,4S)-2-(2-Aminoethyl)-5-(5′-chloro-2′-fluorobiphenyl-4-yl)-4-[(3H-[1,2,3]triazole-4-carbonyl)amino]pentanoic acid] | 1.26 to 3.16
CC(=O)N[C@H](C[C@@H](Cc1ccc(-c2ccccc2F)cc1)NC(=O)c1c[nH]nn1)C(=O)O [Example 25, (2R,4R)-2-Acetylamino-5-(2′-fluorobiphenyl-4-yl)-4-[(1H-[1,2,3]triazole-4-carbonyl)amino]pentanoic Acid] | 3.16 to 10
CC(=O)N[C@H](C[C@@H](Cc1ccc(-c2ccccc2)cc1)NC(=O)c1c[nH]nn1)C(=O)O [Example 26, (2R,4R)-2-Acetylamino-5-biphenyl-4-yl-4-[(1H-[1,2,3]triazole-4-carbonyl)amino]pentanoic Acid] | 3.16 to 10
CCC(=O)N[C@H](C[C@@H](Cc1ccc(-c2ccccc2)cc1)NC(=O)c1c[nH]nn1)C(=O)O [Example 27, (2R,4R)-5-Biphenyl-4-yl-2-propionylamino-4-[(1H-[1,2,3]triazole-4-carbonyl)amino]pentanoic Acid] | 3.16 to 10
CCOc1oc(C(=O)N[C@H](Cc2ccc(-c3cc(Cl)ccc3F)cc2)C[C@@H](NC(=O)OC)C(=O)O)nc1C [Example 30-8, (2R,4R)-5-(5′-Chloro-2′-fluorobiphenyl-4-yl)-4-[(5-ethoxy-4-methyl-oxazole-2-carbonyl)amino]-2-methoxycarbonylaminopentanoic acid] | 1.26 to 3.16
COC(=O)N[C@H](C[C@@H](Cc1ccc(-c2ccccc2)cc1)NC(=O)c1c[nH]nn1)C(=O)O [Example 31, (2R,4R)-5-Biphenyl-4-yl-2-methoxycarbonylamino-4-[(1H-[1,2,3]triazole-4-carbonyl)amino]pentanoic Acid] | 1.26 to 3.16
NCC(=O)N[C@H](C[C@@H](Cc1ccc(-c2ccccc2F)cc1)NC(=O)c1c[nH]nn1)C(=O)O [Example 32, (2R,4R)-2-(2-Aminoacetylamino)-5-(2′-fluorobiphenyl-4-yl)-4-[(1H-[1,2,3]triazole-4-carbonyl)amino]pentanoic Acid] | 3.16 to 10
CC(C)c1coc(C(=O)N[C@H](Cc2ccc(-c3cc(Cl)ccc3F)cc2)C[C@@H](NC(=O)CN)C(=O)O)n1 [Example 34-1, (2R,4R)-2-(2-Aminoacetylamino)-5-(5′-chloro-2′-fluorobiphenyl-4-yl)-4-[(4-isopropyloxazole-2-carbonyl)amino]pentanoic acid] | 1.26 to 3.16
CC(C)c1coc(C(=O)N[C@H](Cc2ccc(-c3cc(Cl)ccc3F)cc2)C[C@@H](NC(=O)C(C)(C)N)C(=O)O)n1 [Example 35, (2R,4R)-2-(2-Amino-2-methylpropionylamino)-5-(5′-chloro-2′-fluorobiphenyl-4-yl)-4-[(4-isopropyloxazole-2-carbonyl)amino]pentanoic Acid] | 3.16 to 10
NCCCC(=O)N[C@H](C[C@@H](Cc1ccc(-c2cc(Cl)ccc2F)cc1)NC(=O)c1cnn[nH]1)C(=O)O [Example 40, (2R,4R)-2-(4-Aminobutyrylamino)-5-(5′-chloro-2′-fluorobiphenyl-4-yl)-4-[(3H-[1,2,3]triazole-4-carbonyl)amino]pentanoic Acid] | ≤ 1
CC(C)c1coc(C(=O)N[C@H](Cc2ccc(-c3cc(Cl)ccc3F)cc2)C[C@@H](NC(=O)[C@H](N)CO)C(=O)O)n1 [Example 42-1, (2R,4R)-2-((R)-2-Amino-3-hydroxypropionylamino)-5-(5′-chloro-2′-fluorobiphenyl-4-yl)-4-[(4-isopropyloxazole-2-carbonyl)-amino]pentanoic Acid] | 1.26 to 3.16

Results, then the compound that gave them:

Ki [nM] | Structure (SMILES)
1.26 to 3.16 | CC(C)c1coc(C(=O)N[C@H](Cc2ccc(-c3cc(Cl)ccc3F)cc2)C[C@@H](NC(=O)[C@H](C)N)C(=O)O)n1 [Example 36-1, (2R,4R)-2-((S)-2-Aminopropionylamino)-5-(5′-chloro-2′-fluorobiphenyl-4-yl)-4-[(4-isopropyloxazole-2-carbonyl)amino]pentanoic Acid]
1.26 to 3.16 | CC(C)c1coc(C(=O)N[C@H](Cc2ccc(-c3cc(Cl)ccc3F)cc2)C[C@@H](NC(=O)[C@@H](C)N)C(=O)O)n1 [Example 36-2, (2R,4R)-2-((R)-2-Aminopropionylamino)-5-(5′-chloro-2′-fluorobiphenyl-4-yl)-4-[(4-isopropy-oxazole-2-carbonyl)-amino]pentanoic Acid]
3.16 to 10 | CC(C)c1coc(C(=O)N[C@H](Cc2ccc(-c3cc(Cl)ccc3F)cc2)C[C@@H](NC(=O)[C@H](N)C(C)C)C(=O)O)n1 [Example 38-1, (2R,4R)-2-((R)-2-Amino-3-methylbutyrylamino)-5-(5′-chloro-2′-fluorobiphenyl-4-yl)-4-[(4-isopropyloxazole-2-carbonyl)amino]pentanoic Acid]
1.26 to 3.16 | CC(C)c1coc(C(=O)N[C@H](Cc2ccc(-c3cc(Cl)ccc3F)cc2)C[C@@H](NC(=O)[C@@H](N)C(C)C)C(=O)O)n1 [Example 38-2, (2R,4R)-2-((S)-2-Amino-3-methylbutyrylamino)-5-(5′-chloro-2′-fluorobiphenyl-4-yl)-4-[(4-isopropyloxazole-2-carbonyl)-amino]pentanoic Acid]

same assay, conditions: recombinant human NEP, fluorogenic peptide substrate, 37° C.

Structure (SMILES) | pKi
CC(=O)NC[C@H](C[C@@H](Cc1ccc(-c2cc(Cl)ccc2F)cc1)NC(=O)c1c[nH]nn1)C(=O)O [Example 28, (2S,4S)-2-(Acetylaminomethyl)-5-(5′-chloro-2′-fluoro-biphenyl-4-yl)-4-[(1H-[1,2,3]triazole-4-carbonyl)amino]pentanoic Acid] | ≧9.0
NCC(=O)N[C@H](C[C@@H](Cc1ccc(-c2cc(Cl)ccc2F)cc1)NC(=O)c1c[nH]nn1)C(=O)O [Example 33, (2R,4R)-2-(2-Aminoacetylamino)-5-(5′-chloro-2′-fluoro-biphenyl-4-yl)-4-[(1H-[1,2,3]triazole-4-carbonyl)amino]pentanoic Acid] | ≧9.0
NCCC(=O)N[C@H](C[C@@H](Cc1ccc(-c2cc(Cl)ccc2F)cc1)NC(=O)c1cnn[nH]1)C(=O)O [Example 41, (2R,4R)-2-(3-Aminopropionylamino)-5-(5′-chloro-2′-fluoro-biphenyl-4-yl)-4-[(3H-[1,2,3]triazole-4-carbonyl)amino]pentanoic Acid] | ≧9.0

More lines, now with the values ahead:

pKi | Structure (SMILES)
≧9.0 | COC(=O)N[C@H](C[C@@H](Cc1ccc(-c2cc(Cl)ccc2F)cc1)NC(=O)c1c[nH]nn1)C(=O)O [Example 30-1, (2R,4R)-5-(5′-Chloro-2′-fluoro-biphenyl-4-yl)-2-methoxycarbonylamino-4-[(1H-[1,2,3]triazole-4-carbonyl)amino]pentanoic acid]
≧9.0 | COC(=O)N[C@H](C[C@@H](Cc1ccc(-c2cc(Cl)ccc2F)cc1)NC(=O)c1cc(C(C)=O)n[nH]1)C(=O)O [Example 30-2, (2R,4R)-4-[(5-Acetyl-2H-pyrazole-3-carbonyl)-amino]-5-(5′-chloro-2′-fluoro-biphenyl-4-yl)-2-methoxycarbonylaminopentanoic acid]
≧9.0 | COC(=O)N[C@H](C[C@@H](Cc1ccc(-c2cc(Cl)ccc2F)cc1)NC(=O)c1ncco1)C(=O)O [Example 30-3, (2R,4R)-5-(5′-Chloro-2′-fluoro-biphenyl-4-yl)-2-methoxycarbonylamino-4-[(oxazole-2-carbonyl)amino]pentanoic acid]
≧9.0 | COC(=O)N[C@H](C[C@@H](Cc1ccc(-c2cc(Cl)ccc2F)cc1)NC(=O)c1coc(C2CC2)n1)C(=O)O [Example 30-5, (2R,4R)-5-(5′-Chloro-2′-fluorobiphenyl-4-yl)-4-[(2-cyclopropyl-oxazole-4-carbonyl)amino]-2-methoxycarbonylaminopentanoic acid]
≧9.0 | CCOc1nc(C(=O)N[C@H](Cc2ccc(-c3cc(Cl)ccc3F)cc2)C[C@@H](NC(=O)OC)C(=O)O)co1 [Example 30-7, (2R,4R)-5-(5′-Chloro-2′-fluorobiphenyl-4-yl)-4-[(2-ethoxy-oxazole-4-carbonyl)amino]-2-methoxycarbonylaminopentanoic acid]
≧9.0 | COC(=O)N[C@H](C[C@@H](Cc1ccc(-c2cc(Cl)ccc2F)cc1)NC(=O)c1noc(=O)[nH]1)C(=O)O [Example 30-9, (2R,4R)-5-(5′-Chloro-2′-fluorobiphenyl-4-yl)-2-methoxycarbonylamino-4-[(5-oxo-4,5-dihydro-[1,2,4]oxadiazole-3-carbonyl)amino]pentanoic acid]
≧9.0 | COC(=O)N[C@H](C[C@@H](Cc1ccc(-c2cc(Cl)ccc2F)cc1)NC(=O)c1c[nH]c(=O)o1)C(=O)O [Example 30-10, (2R,4R)-5-(5′-Chloro-2′-fluorobiphenyl-4-yl)-2-methoxycarbonylamino-4-[(2-oxo-2,3-dihydro-oxazole-5-carbonyl)amino]pentanoic acid]
≧9.0 | COC(=O)N[C@H](C[C@@H](Cc1ccc(-c2cc(Cl)ccc2F)cc1)NC(=O)c1coc(=O)[nH]1)C(=O)O [Example 30-11, (2R,4R)-5-(5′-Chloro-2′-fluorobiphenyl-4-yl)-2-methoxycarbonylamino-4-[(2-oxo-2,3-dihydro-oxazole-4-carbonyl)amino]pentanoic acid]
≧9.0 | C[C@H](N)C(=O)N[C@H](C[C@@H](Cc1ccc(-c2cc(Cl)ccc2F)cc1)NC(=O)c1cnn[nH]1)C(=O)O [Example 37-1, (2R,4R)-2-((S)-2-Aminopropionylamino)-5-(5′-chloro-2′-fluorobiphenyl-4-yl)-4-[(3H-[1,2,3]triazole-4-carbonyl)amino]pentanoic acid]
≧9.0 | CC(C)[C@H](N)C(=O)N[C@H](C[C@@H](Cc1ccc(-c2cc(Cl)ccc2F)cc1)NC(=O)c1cnn[nH]1)C(=O)O [Example 39-1, (2R,4R)-2-((S)-2-Amino-3-methylbutyrylamino)-5-(5′-chloro-2′-fluorobiphenyl-4-yl)-4-[(3H-[1,2,3]triazole-4-carbonyl)amino]pentanoic acid]
